pIC50: −log10 of the molar value.

Data on 18 compounds can be found in patent US20230321253A1, “BIFUNCTIONAL COMPOUNDS AND PHARMACEUTICAL USES THEREOF” (RISEN (SUZHOU) PHARMA TECH CO., LTD., priority 2022, published 2023).

Assay [1] has as its target T1, KRAS-G12D protein (Homo sapiens, UniProt P01116, G12D).
T1 construct: host or cells: Aspc-1 cells
In words: KRAS-G12D protein degradation study in Aspc-1 cells (western blot). The class given is cell-based. The note with it: for inhibition at 0.05 µM / inhibition at 1 µM / inhibition at 0.1 µM: ASPC1, 24 h, 24 hours; for inhibition at 0.05 µM: Aspc-1 cells treated with 50 nM compound, read-out: Rate of degradation (KRAS^G12D); for DC50: Aspc-1 cells, read-out: DC50 of test compound-induced KRAS^G12D protein degradation; for inhibition at 1 µM: Aspc-1 cells treated with 1 μM compound; for inhibition at 1 µM / inhibition at 0.1 µM: read-out: Rate of protein degradation (KRAS^G12D); for inhibition at 0.1 µM: Aspc-1 cells treated with 0.1 μM compound. Put shortly:
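AsPC-1 cells were treated with compound for 24 h at 37° C (0.1% DMSO final), then lysed; KRAS levels measured by western blot. Degradation % = 1 − (KRAS/GAPDH, compound) ÷ (KRAS/GAPDH, DMSO), ×100; DC50 derived from concentration curves.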

In assay [2] the test system is Aspc-1 cells. In words: Cell proliferation study in Aspc-1 cells (Cell Titer Glo). The format is cell-based. The conditions noted are these: Homo sapiens, ASPC1, 72 hours, read-out: IC50, inhibitory effect on cellular proliferation. How it is done: Aspc-1 (Cobioer, CBP60546) cells were grown in RPMI 1640 (Gibco, 61870127) supplemented with 10% fetal bovine serum (Gibco, 10099141), 1% penicillin-streptomycin (Gibco, 15070-063). Aspc-1 cells in exponential growth phase were seeded into 96-well plate (Corning, 3599) at density of 4×10^3/well. Cells were cultured overnight at 37° C. with 5% CO2. On the next day, cells were treated with test compound at various concentrations for 72 hours in 37° C., 5% CO2 incubator (final DMSO concentration was 0.1%). After treatment, 100 μL Cell Tier Glo (Promega, G7573) was added to every well of the cell plates and the plates were incubated at room temperature (RT) for 10 minutes. Cell growth status was measured with Cell Tier Glo (Promega, G7573) following the manufacturer's instructions. The inhibition curve was obtained with GraphPad 7.0 software using four-parameter equation.

T1 sequence (P01116 1-188 isoform P01116-2 G12D): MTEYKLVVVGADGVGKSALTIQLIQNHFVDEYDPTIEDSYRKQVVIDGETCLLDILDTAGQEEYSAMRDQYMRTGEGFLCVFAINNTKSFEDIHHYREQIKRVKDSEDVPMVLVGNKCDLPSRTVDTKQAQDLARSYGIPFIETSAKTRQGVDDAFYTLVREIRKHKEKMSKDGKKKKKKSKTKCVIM

`C#Cc1c(F)ccc2cc(O)cc(-c3ncc4c(N5CC6CCC(C5)N6)nc(OCC5(CN6CCC(CN7CCC(c8ccc9c(C%10CCC(=O)NC%10=O)nn(C)c9c8)CC7)CC6)CC5)nc4c3F)c12` (stereo not drawn) [Compound 133]: in assay [1], the inhibition at 0.05 µM was over 60% and the DC50 was under 0.01 µM. Also, in assay [2], the pIC50 is over 7.00.

Turning to `C#Cc1c(F)ccc2cc(O)cc(-c3ncc4c(N5CC6CCC(C5)N6)nc(OCC5(CN6CC7(CC(N8CCC(c9ccc%10c(C%11CCC(=O)NC%11=O)nn(C)c%10c9)CC8)C7)C6)CC5)nc4c3F)c12` (stereo not drawn) [Compound 169], the inhibition at 0.05 µM in assay [1] is over 60%. Also, in assay [2], the pIC50 was over 7.00.

With `C#Cc1c(F)ccc2cc(O)cc(-c3ncc4c(N5CC6CCC(C5)N6)nc(OCC5(CN6CCC(CCN7CCC(c8ccc9c(C%10CCC(=O)NC%10=O)nn(C)c9c8)CC7)CC6)CC5)nc4c3F)c12` (stereo not drawn) [Compound 149], in assay [1], the inhibition at 0.05 µM is over 60% and the DC50 was under 0.01 µM. Further, the pIC50 in assay [2] is over 7.00.

As for `C#Cc1c(F)ccc2cc(O)cc(-c3ncc4c(N5CC6CCC(C5)N6)nc(OCCCN5CCN(CCCCCCC(=O)N[C@H](C(=O)N6C[C@H](O)C[C@H]6C(=O)NCc6ccc(-c7scnc7C)cc6)C(C)(C)C)CC5)nc4c3F)c12` [Compound 29], the inhibition at 1 µM in assay [1] is 31 to 60%. Further, in assay [2], the pIC50 was 5.30 to 6.00.

For `C#Cc1c(F)ccc2cc(O)cc(-c3ncc4c(N5CC6CCC(C5)N6)nc(OC5CCN(CCCCCCCCCC(=O)N[C@H](C(=O)N6C[C@H](O)C[C@H]6C(=O)NCc6ccc(-c7scnc7C)cc6)C(C)(C)C)CC5)nc4c3F)c12` [Compound 41], the inhibition at 1 µM in assay [1] was over 60%. The pIC50 in assay [2] is 6.00 to 7.00.

With `CCc1c(F)ccc2cc(O)cc(-c3ncc4c(N5CC6CCC(C5)N6)nc(OC[C@@H]5CCCN5C(=O)CCCCCCCC(=O)N[C@H](C(=O)N5C[C@H](O)C[C@H]5C(=O)NCc5ccc(-c6scnc6C)cc5)C(C)(C)C)nc4c3F)c12` [Compound 35], the inhibition at 1 µM in assay [1] lay in the range of 31 to 60%. In assay [2], the pIC50 is 5.30 to 6.00.

On to `C#Cc1c(F)ccc2cc(O)cc(-c3ncc4c(N5CC6CCC(C5)N6)nc(OC5CCN(CCCCCCCCCCC(=O)N[C@H](C(=O)N6C[C@H](O)C[C@H]6C(=O)N[C@@H](C)c6ccc(-c7scnc7C)cc6)C(C)(C)C)CC5)nc4c3F)c12` [Compound 45], for which, in assay [1], the inhibition at 0.1 µM lay in the range of 31 to 60% and the inhibition at 1 µM was over 60%. The pIC50 in assay [2] is 6.00 to 7.00.

For `CCc1c(F)ccc2cc(O)cc(-c3ncc4c(N5CC6CCC(C5)N6)nc(OCC5(CN6CCC(C(=O)N7CCC8(CC7)CC(N7CCC(c9ccc%10c(C%11CCC(=O)NC%11=O)nn(C)c%10c9)CC7)C8)CC6)CC5)nc4c3F)c12` (stereo not drawn) [Compound 156], in assay [1], the inhibition at 0.05 µM was in the range of 31 to 60% and the DC50 was under 0.01 µM. Further, in assay [2], the pIC50 was over 7.00.

Consider `C#Cc1c(F)ccc2cc(O)cc(-c3ncc4c(N5CC6CCC(C5)N6)nc(OCC5(CN6CCC(C(=O)N7CCC8(CC7)CC(N7CCC(c9ccc%10c(C%11CCC(=O)NC%11=O)nn(C)c%10c9)CC7)C8)CC6)CC5)nc4c3F)c12` (stereo not drawn) [Compound 111], for which, in assay [1], the inhibition at 0.1 µM was over 60% and the DC50 was under 0.01 µM. For the same compound, the pIC50 in assay [2] was over 7.00.

On to `C#Cc1c(F)ccc2cc(O)cc(-c3ncc4c(N5CC6CCC(C5)N6)nc(OCCN5CCN(CCCCCCCC(=O)N[C@H](C(=O)N6C[C@H](O)C[C@H]6C(=O)NCc6ccc(-c7scnc7C)cc6)C(C)(C)C)CC5)nc4c3F)c12` [Compound 32], for which the inhibition at 1 µM in assay [1] was 11 to 30%. In addition, the pIC50 in assay [2] was 5.30 to 6.00.

Regarding `C#Cc1c(F)ccc2cc(O)cc(-c3ncc4c(N5CC6CCC(C5)N6)nc(OCCCN5CCN(CCCCCCCC(=O)N[C@H](C(=O)N6C[C@H](O)C[C@H]6C(=O)NCc6ccc(-c7scnc7C)cc6)C(C)(C)C)CC5)nc4c3F)c12` [Compound 31], in assay [1], the inhibition at 1 µM is over 60%. Moreover, in assay [2], the pIC50 was 5.30 to 6.00.

For the compound `C#Cc1c(F)ccc2cc(O)cc(-c3ncc4c(N5CC6CCC(C5)N6)nc(OCC5(CN6CCC7(CC6)CC(N6CCC(c8ccc9c(c8)n(C)c(=O)n9C8CCC(=O)NC8=O)CC6)C7)CC5)nc4c3F)c12` (stereo not drawn) [Compound 164], in assay [1], the inhibition at 0.05 µM is over 60% and the DC50 was under 0.01 µM. Moreover, the pIC50 in assay [2] is over 7.00.

Take `C#Cc1c(F)ccc2cc(O)cc(-c3ncc4c(N5CC6CCC(C5)N6)nc(OCC5(CN6CCC(CN7CCC(c8ccc9c%10c(cccc8%10)C(=O)N9C8CCC(=O)NC8=O)CC7)CC6)CC5)nc4c3F)c12` (stereo not drawn) [Compound 168]: in assay [1], the inhibition at 0.05 µM was over 60%. Also, the pIC50 in assay [2] was over 7.00.

For the compound `C#Cc1c(F)ccc2cc(O)cc(-c3ncc4c(N5CC6CCC(C5)N6)nc(OC5CCN(CCCCCCCCCCC(=O)N[C@H](C(=O)N6C[C@H](O)C[C@H]6C(=O)NCc6ccc(-c7scnc7C)cc6)C(C)(C)C)CC5)nc4c3F)c12` [Compound 43], the inhibition at 1 µM in assay [1] is over 60%. The pIC50 in assay [2] was 6.00 to 7.00.

Turning to `C#Cc1c(F)ccc2cc(O)cc(-c3ncc4c(N5CC6CCC(C5)N6)nc(OCC5(CN6CCCN(C(=O)CN7CCC(c8ccc9c(C%10CCC(=O)NC%10=O)nn(C)c9c8)CC7)CC6)CC5)nc4c3F)c12` (stereo not drawn) [Compound 155], in assay [1], the inhibition at 0.05 µM was over 60% and the DC50 lay within 0.011 to 0.05 µM. Besides, in assay [2], the pIC50 was over 7.00.

Regarding `C#Cc1c(F)ccc2cc(O)cc(-c3ncc4c(N5CC6CCC(C5)N6)nc(OCC5(CN6CCC(C(=O)N7CCC(N8CCC(c9ccc%10c(C%11CCC(=O)NC%11=O)nn(C)c%10c9)CC8)CC7)CC6)CC5)nc4c3F)c12` (stereo not drawn) [Compound 129], in assay [1], the inhibition at 0.05 µM was over 60% and the DC50 is under 0.01 µM. Besides, the pIC50 in assay [2] is over 7.00.

`CCc1c(F)ccc2cc(O)cc(-c3ncc4c(N5CC6CCC(C5)N6)nc(OC5CCN(CCCCCCCCCCC(=O)N[C@H](C(=O)N6C[C@H](O)C[C@H]6C(=O)NCc6ccc(-c7scnc7C)cc6)C(C)(C)C)CC5)nc4c3F)c12` [Compound 44]: the inhibition at 1 µM in assay [1] is 31 to 60%. In assay [2], the pIC50 is 5.30 to 6.00.

With `CCc1c(F)ccc2cc(O)cc(-c3ncc4c(N5CC6CCC(C5)N6)nc(OCC5(CN6CCC7(CC6)CC(N6CCC(c8ccc9c(C%10CCC(=O)NC%10=O)nn(C)c9c8)CC6)C7)CC5)nc4c3F)c12` (stereo not drawn) [Compound 160], in assay [1], the inhibition at 0.05 µM is over 60% and the DC50 is under 0.01 µM. In addition, the pIC50 in assay [2] was over 7.00.
